Experimental data published in paper PMC7594025, “Synthesis, Docking, 3-D-Qsar, and Biological Assays of Novel Indole Derivatives Targeting Serotonin Transporter, Dopamine D2 Receptor, and Mao-A Enzyme: In the Pursuit for Potential Multitarget Directed Ligands” (Molecules, 2020).
Like-named read-outs stand apart in the source and are kept apart here.

Assays:
[1] = target: T1, rat MAO-A (Rattus norvegicus, UniProt P21396); assay: MAO-A inhibition, crude rat brain mitochondrial suspension, serotonin substrate, HPLC-ED; format: biochemical; conditions: 100 µM compound; serotonin 100 µM as substrate
T1 construct: using a crude rat brain mitochondrial suspension as a source of enzyme; from tissue; host or cells: rat brain (crude mitochondrial suspension)
T1 sequence (P21396 1-526): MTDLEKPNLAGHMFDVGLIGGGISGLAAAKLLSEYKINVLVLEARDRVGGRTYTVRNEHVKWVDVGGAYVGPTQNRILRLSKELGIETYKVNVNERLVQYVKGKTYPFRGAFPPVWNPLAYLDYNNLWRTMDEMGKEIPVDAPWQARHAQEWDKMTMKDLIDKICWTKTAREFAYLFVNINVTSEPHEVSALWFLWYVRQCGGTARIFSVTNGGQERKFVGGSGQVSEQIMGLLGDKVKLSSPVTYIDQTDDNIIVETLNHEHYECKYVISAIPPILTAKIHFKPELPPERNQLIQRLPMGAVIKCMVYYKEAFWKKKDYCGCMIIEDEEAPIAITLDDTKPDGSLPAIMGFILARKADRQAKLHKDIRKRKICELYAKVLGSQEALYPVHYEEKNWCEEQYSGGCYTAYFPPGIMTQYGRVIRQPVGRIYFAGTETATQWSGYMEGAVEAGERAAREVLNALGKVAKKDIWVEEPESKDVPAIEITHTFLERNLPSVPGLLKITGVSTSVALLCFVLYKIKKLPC
Procedure: The effects of the compounds on rat MAO-A activity were studied following a previously reported methodology, using a crude rat brain mitochondrial suspension as a source of enzyme. Serotonin (100 µM) was used as the selective substrate for MAO-A. This compound and its metabolite were detected by HPLC with electrochemical detection. As an exploratory evaluation, the percentage of MAO-A inhibition in the presence of 100 µM of the different compounds was determined, with the idea of evaluating in detail those compounds showing an inhibitory activity in the range of 70–100%.

[2] = target: T2, SERT (Homo sapiens, UniProt P31645); assay: SERT competitive binding assay, [3H]-paroxetine, membranes from HEK-293 clonal cell line overexpressing SERT
T2 construct: purchased Perkin-Elmer (Boston, MA, USA) RBHSTM400UA; host or cells: HEK-293 clonal cell line
Procedure: To determine the binding of all compounds at SERT, competitive binding assays were performed according to previously reported procedures with some modifications. […] Control curve was performed with fluoxetine in the same experimental conditions. Non-specific binding was determined with 10 µM fluoxetine.
The IC50 and Ki values correspond to the results of three independent experiments, each in triplicate. All data are expressed as the mean ± SEM.

[3] = target: T3, D2 receptor (Homo sapiens, UniProt P14416); assay: D2 receptor competitive binding assay, [3H]-methylspiperone, membranes from CHO-K1 clonal cell line overexpressing D2 receptor; conditions: 0.5 nM [3H]-methylspiperone, 2 h at 27 °C; mean ± SEM of three experiments, each in triplicate
T3 construct: purchased Perkin-Elmer (Boston, MA, USA) RBHD2CM400UA; host or cells: CHO-K1 clonal cell line
Procedure: To determine the binding of all compounds at D2 receptor, competitive binding assays were performed according to provider indications with some modifications. […] Radioactivity was counted as described before.

[4] = 2 nM [3H]-paroxetine, 1 h at 27 °C, mean ± SEM of three experiments, each in triplicate, read-out: Ki SERT

T3 sequence (P14416 whole entry): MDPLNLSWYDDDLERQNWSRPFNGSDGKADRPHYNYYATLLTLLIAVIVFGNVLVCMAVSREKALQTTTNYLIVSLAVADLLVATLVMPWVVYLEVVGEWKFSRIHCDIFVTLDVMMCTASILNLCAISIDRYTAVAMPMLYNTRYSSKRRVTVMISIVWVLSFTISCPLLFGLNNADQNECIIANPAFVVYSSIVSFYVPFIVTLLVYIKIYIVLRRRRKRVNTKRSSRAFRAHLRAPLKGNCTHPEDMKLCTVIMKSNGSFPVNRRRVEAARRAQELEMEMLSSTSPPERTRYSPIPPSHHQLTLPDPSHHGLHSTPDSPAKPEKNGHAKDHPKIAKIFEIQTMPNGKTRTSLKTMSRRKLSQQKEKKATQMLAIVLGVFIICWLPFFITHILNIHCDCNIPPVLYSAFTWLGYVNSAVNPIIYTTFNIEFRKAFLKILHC
T2 sequence (P31645 whole entry): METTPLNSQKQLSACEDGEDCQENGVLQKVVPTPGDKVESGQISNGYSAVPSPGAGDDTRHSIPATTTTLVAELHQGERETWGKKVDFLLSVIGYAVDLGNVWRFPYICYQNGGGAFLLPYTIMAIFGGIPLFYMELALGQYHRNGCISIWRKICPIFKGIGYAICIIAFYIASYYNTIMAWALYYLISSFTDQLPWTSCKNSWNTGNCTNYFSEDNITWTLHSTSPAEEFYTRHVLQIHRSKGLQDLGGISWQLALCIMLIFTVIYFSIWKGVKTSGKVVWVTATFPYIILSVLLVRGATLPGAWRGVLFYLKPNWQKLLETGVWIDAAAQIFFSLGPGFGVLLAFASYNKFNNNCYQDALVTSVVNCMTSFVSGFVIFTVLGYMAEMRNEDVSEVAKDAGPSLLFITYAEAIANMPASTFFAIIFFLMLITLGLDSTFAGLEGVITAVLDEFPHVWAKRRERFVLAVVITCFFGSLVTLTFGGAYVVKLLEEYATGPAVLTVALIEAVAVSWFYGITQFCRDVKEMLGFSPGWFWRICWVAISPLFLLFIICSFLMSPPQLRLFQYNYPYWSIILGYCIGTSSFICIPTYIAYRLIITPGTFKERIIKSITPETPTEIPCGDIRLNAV

Compound: O=C(CN1CCN(CCCc2c[nH]c3ccc(Br)cc23)CC1)N1CCOc2ccc(F)cc21 [Compound 7o, 1-(6-Fluoro-2,3-dihydro-benzo[b][1,4]oxazin-4-yl)-2-{4-[3-(5-bromo-1H-3-indolyl)-propyl]-1-piperazinyl} ethanamide]
- melting point: 97.2 to 98.8 °C
- inhibition at 100 µM [1]: 26%
- Ki ([2]; SERT, experimental values used for CoMFA/CoMSIA (Table S3), read-out: Exp. pKi (converted)): 34.9 nM
- Ki [3]: 1150 ± 227 nM

Compound: O=C(CN1CCN(CCCc2c[nH]c3ccc(Br)cc23)CC1)Nc1cc(C(=O)NCCN2CCOCC2)ccc1F [Compound 13f, 4-Fluoro-3-(2-{4-[3-(5-bromo-1H-3-indolyl)-propyl]-1-piperazinyl}-acetylamino)-N-(2-morpholin-4-yl-ethyl) Benzamide]
- melting point: 85.2 to 86.8 °C
- inhibition at 100 µM [1]: 39%
- Ki [2, 4]: 58.8 ± 1.14 nM
- Ki [3]: 1830 ± 33 nM

Compound: O=C(CN1CCN(CCCc2c[nH]c3ccc(Br)cc23)CC1)Nc1ccc(F)c(C(=O)NCCN2CCOCC2)c1 [Compound 13g, 2-Fluoro-5-(2-{4-[3-(5-bromo-1H-3-indolyl)-propyl]-1-piperazinyl}-acetylamino)-N-(2-morpholin-4-yl-ethyl) Benzamide]
- melting point: 73.2 to 74.5 °C
- inhibition at 100 µM [1]: 16%
- Ki [2, 4]: 12.6 ± 0.42 nM
- Ki [3]: 765 ± 16 nM
